# Source: US10668134B2, “Dental pretreatment material and dental tissue regeneration kit” (National Center for Geriatrics and Gerontology, priority 2016, dated 2020)
# Experiments:
# [1] = tested on: Eleventh-passage human periodontal ligament cells; experiment: Trophic factor expression in senescent cells of human periodontal membrane (real-time RT-PCR); format: cell-based; settings: control = 1
# Procedure: Eleventh-passage human periodontal ligament cells were plated in DMEM containing 10% FBS in collagen-coated 35 mm dishes (IWAKI) at a density of 2×10^4 cells/ml. After 20 hours, ALK5 inhibitor (SB431542) was added to final concentrations of 5 ng/μl and 10 ng/μl. Further, CCR3 antagonist (SB328437) was added to final concentrations of 5 ng/μl and 10 ng/μl. After 48 hours, mRNA was extracted, and real-time RT-PCR was performed on senescence markers, namely p16, p53, IL6, IL1b, IL8, and TNFα (Table 4).
# Real-time RT-PCR was performed on trophic factors, namely, VEGF, BDNF, NGF, MCP1 (Table below) using mRNA similar to that described in 2 above.
# [2] = tested on: TGW cells (human neuroblastoma cell line); experiment: Neurite outgrowth in TGW cells with culture conditioned medium of senescent dental pulp stem cells; format: cell-based; settings: after 48 hours, DPSC CM alone 111.5 ± 14.1 μm
# Procedure: Non-separated 22nd-passage human dental pulp stem cells were brought into a state of 50% confluence. The medium was replaced with a serum-free medium. After 24 hours, the culture conditioned medium was collected. The supernatant was concentrated approximately 40-fold using Amicon Ultra-15 Centrifugal Filter Unit with Ultracel-3 membrane (Millipore, Billerica, Mass.) with 3-kDa molecular cut. Proteinase inhibitors (Halt™ proteinase inhibitor cocktail EDTA-free, Thermo Scientific, Rockford, Ill., USA) was added. The mixture was dispended to be stored at −80° C. Protein content was measured using Bradford Ultra™ (Expedeon, Cambridge, UK).
# The culture supernatant (5 μg/ml proteins) prepared in 1 above was added to TGW cells (human neuroblastoma cell line). Further, an ALK5 inhibitor (SB431542, 10 ng/μl) was added to a part of the resultant mixture, and a CCR3 antagonist (SB328437, 5 ng/μl) was added to another part of the resultant mixture. TGW cells to which only the culture supernatant was added was used as a negative control. […] Neurite outgrowth after 48 hours was observed and measured with an inverted microscope (Leica).
# [3] = tested on: post-pulpectomy root canal of a tooth of the canine; experiment: Dental pulp regeneration after pulpectomy, allogeneic transplantation of dental pulp stem cells with root canal filler containing ALK5 inhibitor or CCR3 antagonist; format: in vivo, dog
# Description: For each tooth, the root canal was enlarged with #50-55 to the apex, and was washed alternately with a 5% sodium hypochlorite solution and a 3% hydrogen peroxide solution, followed by washing with physiologic saline. The root canal was completely dried with paper points, and hemorrhage was controlled. The root canal was completely closed with a temporary seal of cement and resin. After 7 to 14 days following the pulpectomy, the temporary seal was removed, and the root canal underwent alternate washing and with physiologic saline. Smearclean was then allowed to react for 2 minutes. The root canal was then further washed with physiologic saline, and dried. A root canal filler was prepared by suspending 1×10^6 allogenic dental pulp stem cells, which had been membrane-separated, in 40 μl of a scaffold (Koken Atelocollagen Implant, KOKEN CO., LTD.), and by suspending 3 μl of a 100 μg/ml G-CSF (NEUTROGIN, Chugai Pharmaceutical Co., Ltd.). Further, an ALK5 inhibitor (SB431542, 200 ng) was added to part of the root canal filler. A CCR3 antagonist (SB328437, 200 ng) was added to another part of the root canal filler. The root canal filler with the ALK5 inhibitor or the CCR3 antagonist was injected into associated root canal such that no air bubbles were involved. A hemostatic gelatin sponge (Spongel) was put on the root canal filler. The cavity was completely sealed with cement and resin. After 14 days and 60 days following the transplantation, the teeth were extracted. According to a common method, 5 μm paraffin sections of longitudinal cross section were prepared. The paraffin sections were then H-E stained to undergo morphological observation. Amounts of regenerated dental pulp of four sections were measured for each sample, and an average amount of three samples (14-day samples) or an average amount of four samples (60-day samples) was determined to be the amount of regenerated dental pulp of the respective sample. To analyze angiogenesis, the 60-day samples were immunostained with BS-1 lectin. To analyze neurite outgrowth, the 60-day samples were immunostained with PGP 9.5.
# [4] = tested on: post-pulpectomy root canal of a tooth of the canine of middle or advanced age; experiment: Dental pulp regeneration after trypsin pretreatment plus root canal filler containing CCR3 antagonist; format: in vivo, dog; settings: pretreatment with trypsin (50 μg/ml with nanobubble liquid, 10 minutes) then filler with 200 ng; after 14 days; vs no pretreatment
# Procedure: After 7 to 14 days following a pulpectomy treatment, the treated root canal underwent alternate washing, and then, washing with physiologic saline. Smear clean was then allowed to react for 2 minutes. The root canal was then further washed with physiologic saline, and dried. Further, FRANCETIN⋅T⋅POWDER (2,500 USP of crystalized trypsin per 10 mg) (MOCHIDA PHARMACEUTICAL CO., LTD.) was mixed with a nanobubble liquid into a 50 μg/ml (0.05%) solution. The solution was allowed to react for 10 minutes. The root canal was washed with physiologic saline, and dried. In the same manner as in Example 3, a root canal filler was prepared by suspending 1×10^6 allogeneic dental pulp stem cells, which had been membrane-isolated, in 40 μl of a scaffold (Koken Atelocollagen Implant), and by suspending 3 μl of a 100 μg/ml G-CSF (NEUTROGIN). Further a CCR3 antagonist (SB328437, 200 ng) was added to the root canal filler. The root canal filler was injected into the post-pulpectomy root canal. After 14 days following the transplantation, the tooth was extracted, and 5 μm paraffin sections were prepared. The paraffin sections were then H-E stained to undergo morphological observation.
# [5] = canine of middle or advanced age, 200 ng in root canal filler, after 14 days, vs filler without
# [6] = canine of middle or advanced age, 200 ng in root canal filler, after 60 days, vs filler without
# [7] = canine of middle or advanced age, 200 ng, after 60 days
SMILES,BDNF trophic factor expression ([1]; 5 ng/μl),MCP1 trophic factor expression ([1]; 5 ng/μl),NGF trophic factor expression ([1]; 5 ng/μl),VEGF trophic factor expression ([1]; 5 ng/μl),BDNF trophic factor expression ([1]; 10 ng/μl),MCP1 trophic factor expression ([1]; 10 ng/μl),NGF trophic factor expression ([1]; 10 ng/μl),VEGF trophic factor expression ([1]; 10 ng/μl),Neurite Outgrowth Length ([2]; DPSC CM + 10 ng/μl) [μm],"amount of regenerated dental pulp tissue [3, 5]","amount of regenerated dental pulp tissue [3, 6]","density of angiogenesis (BS-1 lectin) [3, 7]",Neurite Outgrowth Length ([2]; DPSC CM + 5 ng/μl) [μm],amount of regenerated dental pulp tissue [4],"neurite outgrowth (PGP 9.5) [3, 7]","amount of regenerated dental pulp tissue ([3]; canine of young age, 200 ng, after 14 days)"
"NC(=O)c1ccc(-c2nc(-c3ccc4c(c3)OCO4)c(-c3ccccn3)[nH]2)cc1 [ALK5 inhibitor, SB431542]",0.44,1.08,0.58,0.96,0.47,0.96,0.44,1.25,2710.5 ± 1223.0,significant increase,significant increase,significant increase,–,–,–,–
"COC(=O)[C@H](Cc1ccc([N+](=O)[O-])cc1)NC(=O)c1cccc2ccccc12 [CCR3 antagonist, SB328437]",0.33,2.35,0.50,0.92,0.43,0.54,0.58,0.70,–,significant increase,significant increase,–,518.7 ± 126.5,significant increase,significant increase,did not cause any significant increase
